Results as given in US20080182894A1, “METHOD OF PROVIDING PREPARATION FOR TOPICAL APPLICATION AND SUPPLEMENT MEETING CLIENT'S NEEDS” (AJINOMOTO CO., INC., priority 2005, published 2008).
“Also recorded” adds a separate entry of the source. Blank lines part the entries; values can stand above or below the compound they belong to.

Experiments:
[1] = Dissolution of sample in liquid paraffin; assay type: physicochemical; settings: 1 wt % and 5 wt %; evaluated in a dispersion state
[2] = system: hairless mouse (HR-1, female); assay: Vasodilating (blood circulation improving) effect, red spot on auricles, visual evaluation; assay type: in vivo; settings: for blood circulation promoting action, intensity and sustainability (conclusion): auricle red spot test, 1 wt % and 5 wt %
Excerpt: The vasodilating effects (blood circulation improving effect) of capsiate and capsaicin were compared using auricles of a hairless mouse. A sample was applied to the right ear of a hairless mouse (HR-1, female) and a control was applied to the left ear thereof, and the development of a red spot was visually evaluated. (1) Capsiate (1 wt % or 5 wt % dissolved in liquid paraffin) (2) Capsaicin (1 wt % or 5 wt % dispersed in liquid paraffin Liquid paraffin

[3] = system: hairless mouse (HR-1, female); assay: Increase in topical concentration of systemically administered trypan blue dye by topical capsiate; assay type: in vivo
Experimental: A hairless mouse (HR-1, female) was intraperitoneally injected with a trypan blue solution (0.4%, 300 μl). After injection, 100 μl of 5% capsiate (dissolved in an ethanol solution) was applied uniformly using a pipet chip to the right side of the back. As a control, 100 μl of ethanol alone was uniformly applied to the left side of the back by a similar method.

hairless mouse [4] = assay: Inhibition of UVB-induced pigmentation: oral cystine plus transdermal dihydrocapsiate; assay type: in vivo; settings: 5% dihydrocapsiate (50% aqueous ethanol) applied plus oral cystine 50 mg in 150 μl 0.5% CMC; about 3 and about 4 weeks; vs 50% aqueous ethanol application group
Experimental: An experiment similar to that in Example 2 was performed using cystine as an oral agent. In particular, 50 mg of cystine was dissolved in 150 μl of a 0.5% aqueous CMC (carboxymethylcellulose) solution and used as an oral administration sample, and 5% dihydrocapsiate (50% aqueous ethanol solution) was used as a dermal application sample. Ultraviolet beam (UVB) was utilized as an irradiation source without preliminary administration, and the synergistic effect afforded by the oral administration agent and the blood circulation promoter on the blackness suppressive effect on the pigmentation of the back of a mouse was confirmed according to the experiment schedule similar to that in Example 2.
Suppression of pigmentation induction in the dihydrocapsiate application group was visually evaluated.
Visual evaluation criteria • 0: No pigmentation • 1: Spots of pale pigmentation found in a part • 2: Spots of pale pigmentation found on the entire back • 3: Spots of pigmentation found on the entire back (partly deep pigmentation was found) • 4: Spots of deep pigmentation found on the entire back • 5: Deep pigmentation found on the entire back

hairless mouse [5] = assay: Inhibition of UVB-induced pigmentation: oral tocopherol acetate plus transdermal dihydrocapsiate; assay type: in vivo
Experimental: The synergistic effect of tocopherol acetate and dihydrocapsiate was confirmed using a pigmentation induction mouse based on the inhibition of pigmentation induced by ultraviolet beam (UVB).
(1) Before the start of ultraviolet beam (UVB) irradiation, tocopherol acetate (200 μl) as administered orally once a day for 3 days to a hairless mouse (12-week-old, female) using a gavage needle.
(2) After the 3-day oral administration in (1), the hairless mouse was irradiated with UVB (80-90 mJ/cm^2).
(3) Thirty minutes after the irradiation in (2), tocopherol acetate (200 μl) was administered orally to the hairless mouse using a gavage needle. Five minutes after the oral administration, 28 μl of 5 wt % dihydrocapsiate dissolved in 50 wt % ethyl alcohol was applied to the hairless mouse on the left side of the back.
Treatments (2) and (3) were performed 3 times a week (Monday, Wednesday and Friday) and treatment (3) alone was performed twice a week (Tuesday and Thursday). The skin on the back of the mouse after about 3 weeks from the start of the UV irradiation was visually evaluated.

[6] = 1 wt % in liquid paraffin, right ear, control liquid paraffin on left ear
[7] = 5 wt % in liquid paraffin, from 30 min onward after application

dissolution in liquid paraffin [1]: did not dissolve completely
Compound: COc1cc(CNC(=O)CCCC/C=C/C(C)C)ccc1O [capsaicin, reference compound]
development of a red spot on auricle, visual evaluation [2, 6]: presence of a red spot | development of a red spot on auricle, visual evaluation [2, 7]: clear red spot | blood circulation promoting action, intensity and sustainability (conclusion) [2]: strong blood circulation promoting action and long sustainability | time over which red spot maintained the initial state ([2]; capsaicin, even at 1 wt %, auricle): > 2 h

Compound: COc1cc(COC(=O)CCCC/C=C/C(C)C)ccc1O [capsiate]
development of a red spot on auricle, visual evaluation [2, 6]: no development of a red spot | development of a red spot on auricle, visual evaluation [2, 7]: clear red spot | blood circulation promoting action, intensity and sustainability (conclusion) [2]: mild sustainability and intensity | time until developed red spot completely disappeared ([2]; capsiate in liquid paraffin, auricle): about 2 hr | pigmentation of blue dye in the vicinity of the auricle ([3]; 5% capsiate in ethanol applied to auricle, trypan blue i.p., 30-60 minutes after application): pigmentation of a blue dye was observed | skin pigmentation (infiltration) of blue dye at application site ([3]; 100 μl of 5% capsiate in ethanol on back, trypan blue i.p., 30 minutes after application): clear skin pigmentation (infiltration) of the blue dye was observed | skin pigmentation of blue dye derived from trypan blue at application site ([3]; 100 μl of 5% capsiate in ethanol on right side of back vs ethanol alone on left, trypan blue 0.4% 300 μl i.p., 15-20 minutes after application): confirmed only on the capsiate application side

Compound: COc1cc(COC(=O)CCCCCCC(C)C)ccc1O [dihydrocapsiate]
UVB-induced pigmentation induction, visual evaluation (score 0-5, FIG. 9) (hairless mouse [4]): clearly suppressed | UVB-induced pigmentation of back skin, visual evaluation, combined use (hairless mouse [5]; 28 μl of 5 wt % dihydrocapsiate on left side of back plus oral tocopherol acetate 200 μl, UVB 80-90 mJ/cm^2, about 3 weeks, vs non-application right side): less pigmentation; also recorded: can suppress induction of pigmentation by UVB | UVB-induced pigmentation of back skin, visual evaluation, dihydrocapsiate alone (hairless mouse [5]; dihydrocapsiate applied alone, no oral tocopherol acetate, UVB irradiation): UVB irradiation induced pigmentation in the application site; also recorded: failed to suppress induction of pigmentation | pigmentation suppressive effect after treatment is ceased (hairless mouse [5]; tocopherol acetate administration and dihydrocapsiate application ceased, UVB irradiation continued, dihydrocapsiate application site): disappears and induction of pigmentation begins

Compound: CC(=O)Oc1c(C)c(C)c2c(c1C)CCC(C)(CCC[C@H](C)CCC[C@H](C)CCCC(C)C)O2 (some centres unmarked) [tocopherol acetate, reference compound]
UVB-induced pigmentation of back skin, visual evaluation, tocopherol only control (hairless mouse [5]; oral tocopherol acetate 200 μl, solvent (50 wt % ethyl alcohol) applied instead of dihydrocapsiate, right vs left side of back): a clear difference was not observed; also recorded: failed to suppress induction of pigmentation
